Source: paper PMC13313556, “Development and characterization of triazole-based WDR5 inhibitors for the treatment of glioblastoma” (JCI Insight, 2026)

Legend:
Brain homogenate binding = assay type: in vitro ADME; conditions: human brain homogenate; read-out: BHB %fu (h)
Description: both the protein side and buffer side of the membrane after incubation and the parent compound was quantified. Brain homogenate binding was performed similarly as above using human brain homogenate, equilibrium dialysis, and LC-MS/MS methods. Fraction unbound is calculated by dividing the concentration of the buffer side by the concentration of the matrix side (plasma or brain). […]

In situ brain perfusion = assay type: in vivo, mice; conditions: 2-minute perfusion, 10 μM
Description: To evaluate the permeability across the blood-brain barrier of WDR5 inhibitors in the absence of hepatic clearance, we utilized the in situ brain perfusion technique. Mice were anesthetized via i.p. injection of 100 mg/kg ketamine and 80 mg/kg xylazine. The peritoneal cavity was exposed, the descending aorta was clamped, and the right atrium was cut to prevent venous return to the heart. A 28G butterfly winged infusion catheter (Terumo Medical Care Solutions) was inserted into the left ventricle and mice were perfused with a modified physiological buffer containing 10 μM WDR5 inhibitor ([99]). […] To determine brain uptake of WDR5 inhibitors, mice were perfused for 120 seconds. The experiment was concluded by decapitation of the mouse. Following termination, the brain was rapidly removed and placed on ice. Inhibitor concentration in both brain and blood was determined by liquid chromatography tandem mass spectroscopy (Q2 Solutions). The unidirectional uptake transfer constant (Kin) was calculated by the following relationship ([100]):
Where Qbr is the concentration of WDR5 inhibitor in brain (ng/g) corrected for residual inhibitor remaining in cerebrovasculature at the end of the perfusion time frame, Cpf is the perfusion fluid concentration of WDR5 inhibitor (ng/mL), T is the time length of the perfusion experiment, and V0 is the vascular volume of the WDR5 inhibitor (mL/g).

[1] = test system: WIN-site dependent transcripts; assay: Bulk RNA-seq in L0 and DI318 CSCs; assay type: cell-based, human; conditions: for GSEA NES against MV4:11 C16-regulated gene set: 72 hours
Description: Bulk RNA-seq was performed at MedGenome Inc. using the Illumina Stranded mRNA Library Prep Kit and sequencing at 20M paired-end read-depth on a NovaSeq 6000 (PE100). The raw bulk RNA-seq paired end (R1-R2, 2 × 100 bp) sequencing fastq data was first subjected to the quality check analysis using FastQC (v0.11.9). […] Further, quality filtered reads were subjected to the alignment employing Rsubread (v2.16.1) align function with human genome reference build GRCh38 ([90], [91]). The mapped binary alignment map (BAM) files were indexed using samtools (v1.16.1) ([92]), and gene-wise read counts were summarized applying featureCounts function from Rsubread, where inbuilt hg38 annotation was used and duplicated reads were ignored. Furthermore, gene symbols were obtained using org.Hs.eg.db (v3.15.0) annotation package operating on ENTREZIDs from count table. Respectively, edgeR (v3.38.4) and limma-voom (v3.52.4) packages were employed to accomplish differential transcriptional regulation analysis ([93]–[95]). Briefly, constructed DGEList object (DGEList function), design matrix (model.design), and contrast matrix (makeContrasts) was defined, filtered low counts (filterByExpr), and trimmed mean of M-values (TMM) normalization (calcNormFactors) was done. Later, log2 counts per million reads (logCPM) transformation, model fitting and differential expression analysis was performed using limma-voom (voomWithQualityWeights, lmFit, contrasts.fit), empirical Bayes moderated t-statistics (eBayes), and TREAT method (treat, decideTests, topTreat) considering log fold-change (logFC) (0.5) threshold. Genes with |log2FC| > 0.5 and FDR adjusted P value cutoff (≤0.01) were considered as differentially expressed genes (DEGs). Gene ontology (GO) and pathway enrichment analysis was accomplished implementing ShinyGO (v0.77) ([96]). DEGs volcano plots were depicted utilizing EnhancedVolcano (v1.16.0) package.

MV4:11 = conditions: read-out: MV4:11 GI50; cited from earlier work
WDR5 [2] = biological target: T1, WDR5 (Homo sapiens, UniProt P61964); assay: WDR5 live cell CETSA in intact L0 CSCs (melting curve, isothermal Kd, washout); assay type: cell-based; design: we first used a cellular thermal shift (CETSA) assay in intact L0 CSCs; endogenous in cells; host or cells: L0 patient-derived GBM CSCs
Description: In total, 500,000 L0 CSCs, grown in suspension as spheroids, were split with Accutase and seeded in 1 mL of NBMc into each well of a 24-well dish. […] Cells were harvested by centrifugation (5 minutes, 500g) into SafeLock tubes (Eppendorf), washed once with 400 μL of PBS, and resuspended in 25 μL of CETSA Buffer (PBS + 1X Roche cOmplete Protease Inhibitor Cocktail + 3X Benzonase). […] One DMSO-treated sample was left unheated (representing 100% abundance i.e., fully bound) and 1 DMSO-treated sample was heated to 70°C (representing 0% abundance i.e., fully unbound). After heating, samples were lysed by 6X freeze-thaw cycles in LN2/hot water, rested for 10 minutes at room temperature, and then centrifuged for 30 minutes at > 14,000g at 4°C. 20 μL of the supernatant was transferred to a fresh tube into 5 μL of SDS-PAGE Loading Dye, boiled, and separated on 4%–20% Mini-PROTEAN Precast TGX Gels (Biorad). […] For CETSA washout experiments, a 10 cm dish with 6 × 10^6 to 8 × 10^6 L0 cells was treated for 2 hours with 5 μM compound or DMSO, washed 3 times with 15 mL of PBS (3 min, 400g), and split into 10 × 1 mL of fresh NBMc in a 24-well dish.

WDR5 [3] = biological target: T1, WDR5; design: human WDR5 residues Ser22-Cys334 were codon optimized for E. coli; made in house; host or cells: E. coli T7 Express lysY/Iq (New England Biolabs), pET27 plasmid; conditions: read-out: direct WDR5 Ki; cited from earlier work
[4] = test system: RPS24, PYGL, CKMT1, SALL2, NID2, PYGB, RPL14 transcripts; assay: RT-qPCR of WDR5-target genes in patient-derived CSCs (L0, L1, L2, DI318, 3832); assay type: cell-based, human; conditions: 72 hours
Description: Cells were harvested by centrifugation (5 minutes, 500g) into 2 mL Eppendorf Tubes and total RNA was purified on spin columns using the RNeasy Plus Kit (Qiagen, includes gDNA removal columns). In total, 2.5 μg of total RNA was treated with ezDNAse (Thermo Fisher) and then reverse transcribed with the SuperScript IV VILO RT Master Mix (Invitrogen). cDNA was diluted 1:100 in nuclease-free water and then transcripts were quantified using the PowerUp SYBR Green Master Mix (Thermo Fisher) on a QuantStudio 3 qPCR machine according to the manufacturer’s recommendations. Primer sets are provided in the Supporting Information. Raw Cq values were normalized per sample to the housekeeper ACTB and then the fold-change relative to DMSO treated cells was calculated as FC = 2^–ΔΔCq.

L0 CSCs = assay: Extreme limiting dilution assay (ELDA) in L0; assay type: cell-based, human; conditions: 14 days
Description: L0 and DI318 CSCs were split with Accutase as single cells into NBMc. In total, 200 μL of CSCs were seeded into each well of a 96-well TC treated plate (n = 10 well per density) at 50, 25, 13, 6, 3, and 1.5 cells/well. […] The stem cell frequency was quantified and treatments were compared with DMSO as described by Hu and Smyth ([98]).

DI318 flank PDX tumors = assay: DI318 flank xenograft, tumor volume; assay type: in vivo, NSG mice; conditions: 30 mg/kg once a day i.p. over 7 days
Description: (A) NOD-scid (NSG) mice were inoculated subcutaneously in the right flank with 2 × 10⁶ DI318 CSCs suspended in 100 μL of PBS:Matrigel (1:1). Over the next 6-7 days tumors developed to the point where a small mass was visual. A digital caliper measurement (length and width) were taken to get a baseline tumor size. Mice
Compounds were formulated in 20% HP β-cyclodextrin (BCD) and administered once daily via IP injection at 30 mg/kg for 7 consecutive days.
Endpoint ellipsoid tumor volume was calculated and compared using a t-test.

IC50 ([4]; Homo sapiens, L0 and DI318, 5 genes, read-out: average IC50 of transcriptional downregulation (qPCR)) [nM] | time remaining bound to WDR5 after washout (WDR5 [2]; L0 CSCs, 5 μM for 2 hours, then washout) | Kd (WDR5 [2]; L0 CSCs, 2-hour pretreatment, isothermal 70°C) [nM] | SMILES | fraction unbound at […] (Brain homogenate binding) | unidirectional brain uptake constant Kin (In situ brain perfusion) | GSEA NES against MV4:11 C16-regulated gene set ([1]; DI318, 200 nM) | GSEA NES against MV4:11 C16-regulated gene set ([1]; L0, 200 nM) | GI50 (MV4:11) [nM] | ΔTm at 10 µM (WDR5 [2]; L0 cells, 10 μM, 2 hours) [°C] | Ki (WDR5 [3]) [nM] | PYGB expression log2FC ([4]; L0, L2, DI318, 3832, 200 nM) | PYGL and CKMT1 downregulation ([4]; all 5 CSC models, 200 nM) | RPL14 expression ([4]; all 5 CSC models, 200 nM) | RPS24 downregulation ([4]; all 5 CSC models, 200 nM) | C16 DEGs also downregulated by C3TD078 ([1]; DI318, 200 nM, 72 hours (118/150)) [%] | C16 DEGs also downregulated by C3TD078 ([1]; L0, 200 nM, 72 hours (91/102)) [%] | L0 ELDA stem cell frequency (1 in N) (L0 CSCs; 20 nM) | L0 ELDA stem cell frequency (1 in N) (L0 CSCs; 200 nM) | L0 ELDA stem cell frequency (1 in N) (L0 CSCs; 2000 nM) | effect on tumor growth (DI318 flank PDX tumors)
 |  |  | COc1cc(Cn2nnc3c2CCc2c-3cc(Cn3ccnc3C)cc2C2CC2)ccc1F [C3TD343] | 0.005 | > 50 × 10^–4 mL/s/g |  |  |  |  |  |  |  |  |  |  |  |  |  |  | 
 |  |  | COc1cc(CN2CCc3c(cc(Cn4ccn(C)c4=N)cc3-c3ccc(F)cc3C)C2=O)cc(OC)c1 [C16, reference compound] |  | < 5 × 10^–4 mL/s/g | –2.5 | –2.0 | 38 | 35 | < 0.02 |  |  |  |  |  |  |  |  |  | 
80 | at least 21 hours | 2 | COc1cc(Cn2nnc3c2CCc2c(-c4cn(C)nc4C(F)(F)F)cc(Cn4ccnc4C)cc2-3)cc(OC)c1 [C3TD078] | 0.004 |  |  |  |  |  |  | < 1.0 | ~ 4 fold | unaffected | ~ 2 fold | 79 | 89 | 1.3 | 2.2 | 2.1 | did not reduce tumor growth
